Patent US8246966B2, “Trypanosome microsome system and uses thereof” (priority 2006, dated 2012)

Tests used:
[1] = test system: T. brucei microsomes (TbRM); assay: Post-translational import of VSG-11786 into TbRM with inhibitors (Example 4); type: biochemical, Trypanosoma brucei
Method: FIGS. 7A to 7C. […] VSG-11786 mRNA was translated in rabbit reticulocyte lysate in the absence or presence of T. brucei cytosol for 1 hour at 37° C., and then cycloheximide was added to stop protein synthesis. TbRM (1 equivalent) and MAL3-101 (10 μM), MAL3-51 (10 μM), or an equal volume of DMSO was added to the samples on ice, and the mixture was incubated at 37° C. for 1.5 hours for translocation of VSG-11786 into the microsomes. Reaction mixtures were treated with proteinase K (PK) for one hour on ice. Proteolysis was terminated with PMSF. Proteins were precipitated with ammonium sulfate, pelleted by centrifugation, resuspended in SDS-PAGE sample buffer, and resolved by Tris-Tricine SDS-PAGE. Gel images were obtained with a phosphorimager and analyzed with Quantity-One software. Reaction mixtures for odd numbered lanes contained TbRM, but not proteinase K; even numbered lanes contained TbRM and proteinase K. Brackets denote lanes that were compared to obtain percentage of VSG-11786 import values. FIG. 7B is a graphical representation of data from FIG. 7A. […] In FIG. 7C, the effect of MAL3-101 on T. brucei growth.
FIGS. 8A to 8D. Effects of NFI028 and CAM741 on import of VSG-11786 into T. brucei microsomes. […] VSG-11786 mRNA was translated in rabbit reticulocyte lysate in the presence of T. brucei cytosol for one hour at 37° C., and then protein synthesis was stopped by the addition of cycloheximide. […] Reaction mixtures were treated with proteinase K (PK) on ice for one hour. Proteolysis was terminated with PMSF. Proteins were precipitated with ammonium sulfate, pelleted, resuspended in SDS-PAGE sample buffer, and resolved by Tris-Tricine SDS-PAGE. Images of radiolabeled proteins were obtained with a phosphorimager and quantitated with Quantity-One software. Samples depicted in odd numbered lanes contained TbRM, but were not treated proteinase K. Reaction mixtures shown in even numbered lanes contained TbRM and were treated with proteinase K. Brackets denote lanes that were compared to each other in order to obtain percentage of VSG-11786 import values. FIG. 8B is a graphical representation of data from FIG. 8A.
FIGS. 9A to 9D. Effects of azide, AEE788, and valinomycin on VSG-11786 import into T. brucei microsomes. […] VSG-11786 mRNA was translated in rabbit reticulocyte lysate in the presence of T. brucei cytosol for one hour at 37° C. Cycloheximide was added to stop proteins synthesis. TbRM (1 equivalent) and sodium azide (8 μM), AEE788 (8 μM), an equal volume of microsome buffer (RMB) or DMSO was added to the samples on ice, and the mixtures were incubated at 37 C for 1.5 hours. Reaction mixtures were treated with proteinase K (PK) on ice for one hour. Proteolysis was terminated with PMSF. Proteins were precipitated with ammonium sulfate, pelleted, resuspended in SDS-PAGE sample buffer, and resolved by Tris-Tricine SDS-PAGE. Images of radiolabeled proteins were obtained with a phosphorimager and quantitated with Quantity-One software. Brackets show lanes that were compared to each other in order to obtain percentage of VSG-11786 imported into TbRM. Lanes 1, 3, 5, & 7 were treated with TbRM, but not proteinase K. Lanes 2, 4, 6, & 8 were treated with TbRM and proteinase K. FIG. 9B is a graphical representation of data from FIG. 9A. […] Reaction mixtures depicted in odd lanes contained TbRM, but were not treated with proteinase K; even lanes contained TbRM and were treated with proteinase K. FIG. 9D is a graphical representation of data from panel FIG. 9C.

bloodstream T. brucei = conditions: del Rayo Camacho et al., 2002; read-out: IC50 of drug used to treat human African trypanosomiasis; cited from earlier work
[2] = test system: Bloodstream T. brucei CA427; assay: Bloodstream T. brucei cell culture drug susceptibility (Example 4); type: cell-based, Trypanosoma brucei; conditions: cultured bloodstream T. brucei; read-out: IG50, T. brucei growth
Method: Cell Culture. Bloodstream T. brucei cell culture and drug susceptibility studies were performed as previously described. Bloodstream T. brucei CA427 were cultured in HMI-9 media (Hirumi and Hirumi, 1994, Parasitol Today; 10(2):80-4) to a density of 10^6 cells/ml. Cells were seeded (500 μl of 4×10^4 cells/ml) to a 24-well plate and exposed to MAL3-101, CAM741, and NFI028 at listed concentrations (see figure legends) or an equal volume of DMSO. Cells were incubated at 37° C. and counted after 24 and 48 hours, using a hemocytometer.

CCN1CCN(Cc2ccc(-c3cc4c(N[C@H](C)c5ccccc5)ncnc4[nH]3)cc2)CC1 [AEE788]
inhibition of post-translational import of VSG-11786 into TbRM ([1]; AEE788 8 μM): failed to inhibit

N=C(N)c1ccc(OCCCCCOc2ccc(C(=N)N)cc2)cc1 [pentamidine]
IC50 (bloodstream T. brucei): 0.3 nM

Cc1ccc(C(=O)Nc2ccc(S(=O)(=O)O)c3cc(S(=O)(=O)O)cc(S(=O)(=O)O)c23)cc1NC(=O)c1cccc(NC(=O)Nc2cccc(C(=O)Nc3cc(C(=O)Nc4ccc(S(=O)(=O)O)c5cc(S(=O)(=O)O)cc(S(=O)(=O)O)c45)ccc3C)c2)c1 [suramin]
IC50 (bloodstream T. brucei): 1400 to 2300 nM

CC(C)[C@@H]1NC(=O)[C@H](C)OC(=O)[C@@H](C(C)C)NC(=O)[C@@H](C(C)C)OC(=O)[C@H](C(C)C)NC(=O)[C@H](C)OC(=O)[C@@H](C(C)C)NC(=O)[C@@H](C(C)C)OC(=O)[C@H](C(C)C)NC(=O)[C@H](C)OC(=O)[C@@H](C(C)C)NC(=O)[C@@H](C(C)C)OC1=O [valinomycin]
efficiency of VSG-11786 import into TbRM ([1]; valinomycin 0.5 μM): not affected

CAM741
VSG-11786 import into TbRM ([1]; CAM741 1 μM, DMSO 74%): 73%
IC50 [2]: 2000 nM
